Experimental data taken from patent publication US20240091366A1, “NOVEL ACID-SENSITIVE APTAMER TRIPTOLIDE CONJUGATE AND APPLICATIONS” (priority 2022, published 2024).
Several values for one entry are separate records, joined by “and”; a condition that tells them apart may be missing. Equal values may be shown once.

How the values were obtained:
[1] = tested on: human embryonic kidney cells HEK293; test: MTT assay, cytotoxicity on normal cells; type: cell-based; conditions: 48 h, samples 1-3
Method: (§1) The same materials as those in Part II above are not repeated here, in addition to the following: human normal hepatocytes LO2, human embryonic kidney cells HEK293 were purchased from the Shanghai Cell Bank of the Chinese Academy of Sciences and preserved in our laboratory.
(§2) Take the […] LO2 and HEK293 cell lines from the liquid nitrogen tank, place them in a 37° C. water bath, wait for the frozen cells to melt into cell suspension, centrifuge the cells at 1000 r/min for 3 min, discard the supernatant, add 1 ml of fresh complete medium containing 10% fetal bovine serum and 1% double antibody to mix the cells, then add 5 ml of medium, gently and repeatedly blowing the cells with a pipette gun to make them mix well. Then add 5 ml of medium, blow the cells gently and repeatedly with a pipette gun to mix them well, and finally transfer the cell suspension to a […] and label the cell name, cell number, date of resuscitation and the operator's name, and place it in a cell culture incubator for cultivation. (HEK293 cell line was cultured with DMEM medium, LO2 cell line was cultured with RPMI1640 medium)
(§3) Take LO2 and HEK293 cells with good growth status, remove the medium, add 1 ml of sterile PBS to wash, add 1.5 ml of trypsin to digest the cells, about 2 min later the cells become round and fall off, add 1.5 ml of medium to terminate the digestion, transfer it to centrifugal tube, centrifuge at 1000 r/min for 3 min, discard the supernatant, add 1 ml of fresh medium to resuspend, then add fresh medium for 1:3 distribution to other culture dishes, and label the date of transmission and the number of generations. Place in the cell culture incubator for cultivation.
(§4) Take LO2 and HEK293 cells with good growth status, by the same operation as the cell passaging experiment, after cell resuspension, cell counting with hemocyte counting plate, with 3000 cells/well, plant in 96-well plate, after 24 h of cell culture, remove the original medium, add medium containing different concentrations of drugs and continue to cultivate for 48 hours. After 24 h of cell culture, the original medium was removed and the medium containing different concentrations of drugs was added to continue the culture for 48 hours. […] The above steps were repeated three times.

[2] = tested on: human normal hepatocytes LO2; test: MTT assay, cytotoxicity on normal cells; type: cell-based; conditions: 48 h, 48 h, samples 1-3
Method: as §1, §2, §3, §4

[3] = tested on: colon cancer cells HCT116; test: In vivo antitumor activity, colon cancer xenograft in nude mice; parameters: species or system mouse; Tumor weight: unit not given here; conditions: HCT116 model, once every 2 days, 8 doses
Source text: (§5) The following are the in vivo activity studies conducted in different tumor-bearing mice:
(§6) A PBS negative control group was set up.

[4] = tested on: breast cancer cells MDA-MB-231; test: In vivo antitumor activity, breast cancer xenograft in nude mice; parameters: species or system mouse; Tumor weight: unit not given here; conditions: MDA-MB-231 model, once every 2 days, 8 doses
Source text: as §5
The materials used in the experiments were the same as those tested in 5.1 Colon cancer cell lines, differing only in the tumor strains.
as §6

[5] = tested on: lung cancer cell line A549; test: In vivo antitumor activity, lung cancer xenograft in nude mice; parameters: species or system mouse; Tumor weight: unit not given here; conditions: A549 model, once every 2 days, 8 doses
Source text: as §5, §6

[6] = Body weight during administration, breast cancer model; conditions: mouse, in vivo
Method: (§7) Specific experimental protocol: Female nude mice were reared for 6-7 weeks under standard environment, breast cancer cells MDA-MB-231 were suspended in serum-free medium, and each mouse was inoculated with 6*10^6 tumor cells. When the tumor volume reached 50-100 mm^3, the mice were randomly divided into 4 groups, and were injected with aptamer triptolide conjugate, triptolide, and aptamer by tail vein, respectively, 12 mice in each group. A PBS negative control group was set up. […] The drugs were administered once every 2 days for 8 consecutive doses, and the experiment was ended 24 hours after the last dose. At the end of the experiment, the animals were executed by breaking the cervical vertebrae, and the tumors were stripped and weighed to calculate the tumor growth inhibition rate of the drug. The t-test was used to compare the tumor weight, tumor volume, RTV and other indexes of the animals in each group.

[7] = Body weight during administration, lung cancer model; conditions: mouse, in vivo
Method: as §7, with “Experimental” for “Specific experimental”, “lung” for “breast”, “cell line A549” for “cells MDA-MB-231”

[8] = tested on: tumor cells; conditions: background art; cited from earlier work

SMILES: CC(C)[C@]12O[C@H]1[C@@H]1O[C@]13[C@]1(O[C@H]1C[C@H]1C4=C(CC[C@@]13C)C(=O)OC4)[C@@H]2O [TP, Triptolide]
- cell proliferation inhibition rate ([1]; HEK293, 3.1 nM, 0.0031 µM): 30.4489 and 32.7054
- cell proliferation inhibition rate ([1]; HEK293, 6.3 nM, 0.0063 µM): 53.1149 and 51.3265
- cell proliferation inhibition rate ([1]; HEK293, 12.5 nM, 0.0125 µM): 70.4830 and 71.1686
- cell proliferation inhibition rate ([1]; HEK293, 25.0 nM, 0.025 µM): 73.0686 and 75.7495
- cell proliferation inhibition rate ([1]; HEK293, 50.0 nM, 0.05 µM): 81.0372
- cell proliferation inhibition rate ([1]; HEK293, 100.0 nM, 0.1 µM): 94.3972 and 99.2908
- cell proliferation inhibition rate ([1]; HEK293, 200.0 nM, 0.2 µM): 95.3901 and 100.6383
- inhibition at 0.0031 µM ([1]; Homo sapiens, HEK293, 48 h, HEK293, 3.1 nM, read-out: cell proliferation inhibition rate): 35.1%
- inhibition at 0.0063 µM ([1]; Homo sapiens, HEK293, 48 h, HEK293, 6.3 nM, read-out: cell proliferation inhibition rate): 59.9%
- inhibition at 0.0125 µM ([1]; Homo sapiens, HEK293, 48 h, HEK293, 12.5 nM, read-out: cell proliferation inhibition rate): 69.3%
- inhibition at 0.025 µM ([1]; Homo sapiens, HEK293, 48 h, HEK293, 25.0 nM, read-out: cell proliferation inhibition rate): 79.5%
- inhibition at 0.05 µM ([1]; Homo sapiens, HEK293, 48 h, HEK293, 50.0 nM, read-out: cell proliferation inhibition rate): 89.5%
- inhibition at 0.1 µM ([1]; Homo sapiens, HEK293, 48 h, HEK293, 100.0 nM, read-out: cell proliferation inhibition rate): 99.9%
- inhibition at 0.2 µM ([1]; Homo sapiens, HEK293, 48 h, HEK293, 200.0 nM, read-out: cell proliferation inhibition rate): 98.3%
- inhibition at 0.0031 µM ([2]; Homo sapiens, Hepatocyte, LO2, 3.1 nM, read-out: cell proliferation inhibition rate): 21.4%
- inhibition at 0.0063 µM ([2]; Homo sapiens, Hepatocyte, LO2, 6.3 nM, read-out: cell proliferation inhibition rate): 32%
- inhibition at 0.0125 µM ([2]; Homo sapiens, Hepatocyte, LO2, 12.5 nM, read-out: cell proliferation inhibition rate): 66.4%
- inhibition at 0.025 µM ([2]; Homo sapiens, Hepatocyte, LO2, 25.0 nM, read-out: cell proliferation inhibition rate): 74.1%
- inhibition at 0.05 µM ([2]; Homo sapiens, Hepatocyte, LO2, 50.0 nM, read-out: cell proliferation inhibition rate): 88.7%
- inhibition at 0.1 µM ([2]; Homo sapiens, Hepatocyte, LO2, 100.0 nM, read-out: cell proliferation inhibition rate): 96.3%
- inhibition at 0.2 µM ([2]; Homo sapiens, Hepatocyte, LO2, 200.0 nM, read-out: cell proliferation inhibition rate): 94%
- cell proliferation inhibition rate ([2]; LO2, 3.1 nM, 0.0031 µM): 23.3551 and 17.9111
- cell proliferation inhibition rate ([2]; LO2, 6.3 nM, 0.0063 µM): 40.8401 and 42.6158
- cell proliferation inhibition rate ([2]; LO2, 12.5 nM, 0.0125 µM): 59.2076 and 65.5783
- cell proliferation inhibition rate ([2]; LO2, 25.0 nM, 0.025 µM): 73.3084 and 73.3954
- cell proliferation inhibition rate ([2]; LO2, 50.0 nM, 0.05 µM): 87.4474 and 84.6990
- cell proliferation inhibition rate ([2]; LO2, 100.0 nM, 0.1 µM): 97.7552 and 82.0308
- cell proliferation inhibition rate ([2]; LO2, 200.0 nM, 0.2 µM): 99.8060 and 96.6312
- RTV ([3]; 10 μM 100 μL tail vein): 23.31 ± 0.31
- T/C (%) ([3]; 10 μM 100 μL tail vein): 65.57%
- Tumor inhibition rate (%) ([3]; 10 μM 100 μL tail vein): 25.80%
- Tumor weight ([3]; 10 μM 100 μL tail vein): 2.31 ± 0.24
- RTV ([3]; 30 μM 100 μL tail vein): 16.68 ± 0.19
- T/C (%) ([3]; 30 μM 100 μL tail vein): 46.92%
- Tumor inhibition rate (%) ([3]; 30 μM 100 μL tail vein): 45.16%
- Tumor weight ([3]; 30 μM 100 μL tail vein): 1.76 ± 0.13
- RTV ([3]; 50 μM 100 μL tail vein): 10.09 ± 0.28
- T/C (%) ([3]; 50 μM 100 μL tail vein): 28.38%
- Tumor inhibition rate (%) ([3]; 50 μM 100 μL tail vein): 64.51%
- Tumor weight ([3]; 50 μM 100 μL tail vein): 1.11 ± 0.25
- RTV ([4]; 10 μM tail vein): 27.18 ± 47
- T/C (%) ([4]; 10 μM tail vein): 65.57%
- Tumor inhibition rate (%) ([4]; 10 μM tail vein): 31.78%
- Tumor weight ([4]; 10 μM tail vein): 2.34 ± 0.39
- RTV ([4]; 30 μM tail vein): 16.44 ± 31
- T/C (%) ([4]; 30 μM tail vein): 39.66%
- Tumor inhibition rate (%) ([4]; 30 μM tail vein): 48.40%
- Tumor weight ([4]; 30 μM tail vein): 1.77 ± 0.51
- RTV ([4]; 50 μM tail vein): 12.89 ± 55
- T/C (%) ([4]; 50 μM tail vein): 31.10%
- Tumor inhibition rate (%) ([4]; 50 μM tail vein): 74.05%
- Tumor weight ([4]; 50 μM tail vein): 0.89 ± 0.08
- RTV ([5]; 10 μM tail vein): 26.1 ± 0.09
- T/C (%) ([5]; 10 μM tail vein): 51.81%
- Tumor inhibition rate (%) ([5]; 10 μM tail vein): 27.27%
- Tumor weight ([5]; 10 μM tail vein): 2.47 ± 0.08
- RTV ([5]; 30 μM tail vein): 17.91 ± 0.27
- T/C (%) ([5]; 30 μM tail vein): 31.59%
- Tumor inhibition rate (%) ([5]; 30 μM tail vein): 48.48%
- Tumor weight ([5]; 30 μM tail vein): 1.79 ± 0.19
- RTV ([5]; 50 μM tail vein): 10.92 ± 0.15
- T/C (%) ([5]; 50 μM tail vein): 89.93%
- Tumor inhibition rate (%) ([5]; 50 μM tail vein): 63.64%
- Tumor weight ([5]; 50 μM tail vein): 1.29 ± 0.27
- body weights of mice [6]: basically maintained in the tolerable range of animal toxicity and side-effects
- body weights of mice [7]: basically maintained in the tolerable range of animal toxicity and side-effects
- concentration effectively inhibiting the proliferation of tumor cells [8]: 2 to 10 ng/mL
